Measured values as given in article PMC12136037, “Type II kinase inhibitors that target Parkinson’s disease–associated LRRK2” (Science Advances, 2025).

Tests used:
Assay in all cases: DSF 100 kinase selectivity screen;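 also: compound tested at 20 µM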
Format in all cases: binding
[1] = target: T1, ~100 representative kinases (Homo sapiens, UniProt P07332); details: protein FESA; average of three replicates
T1 construct: Recombinant protein kinase domains with a concentration of 2 μM
Method in brief: (§1)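 Each kinase domain, at 2 μM, is mixed with 20 μM test compound and SYPRO Orange in Hepes (20 mM, pH 7.5) with 500 mM NaCl. Temperature is then raised at 3°C/min and fluorescence-monitored unfolding yields the melting temperature change, ΔTm in degrees Celsius.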

[2] = target: T2, ~100 representative kinases (Homo sapiens, UniProt Q00536); details: protein PCTK1; average of three replicates
T2 construct: Recombinant protein kinase domains with a concentration of 2 μM
Method in brief: as §1

[3] = target: T3, ~100 representative kinases (Homo sapiens, UniProt P45984); details: protein MAPK9; average of three replicates
T3 construct: Recombinant protein kinase domains with a concentration of 2 μM
Method in brief: as §1

[4] = target: T4, ~100 representative kinases (Homo sapiens, UniProt O14936); details: Protein CASK; average of three replicates
T4 construct: Recombinant protein kinase domains with a concentration of 2 μM
T4 sequence (O14936 1-926): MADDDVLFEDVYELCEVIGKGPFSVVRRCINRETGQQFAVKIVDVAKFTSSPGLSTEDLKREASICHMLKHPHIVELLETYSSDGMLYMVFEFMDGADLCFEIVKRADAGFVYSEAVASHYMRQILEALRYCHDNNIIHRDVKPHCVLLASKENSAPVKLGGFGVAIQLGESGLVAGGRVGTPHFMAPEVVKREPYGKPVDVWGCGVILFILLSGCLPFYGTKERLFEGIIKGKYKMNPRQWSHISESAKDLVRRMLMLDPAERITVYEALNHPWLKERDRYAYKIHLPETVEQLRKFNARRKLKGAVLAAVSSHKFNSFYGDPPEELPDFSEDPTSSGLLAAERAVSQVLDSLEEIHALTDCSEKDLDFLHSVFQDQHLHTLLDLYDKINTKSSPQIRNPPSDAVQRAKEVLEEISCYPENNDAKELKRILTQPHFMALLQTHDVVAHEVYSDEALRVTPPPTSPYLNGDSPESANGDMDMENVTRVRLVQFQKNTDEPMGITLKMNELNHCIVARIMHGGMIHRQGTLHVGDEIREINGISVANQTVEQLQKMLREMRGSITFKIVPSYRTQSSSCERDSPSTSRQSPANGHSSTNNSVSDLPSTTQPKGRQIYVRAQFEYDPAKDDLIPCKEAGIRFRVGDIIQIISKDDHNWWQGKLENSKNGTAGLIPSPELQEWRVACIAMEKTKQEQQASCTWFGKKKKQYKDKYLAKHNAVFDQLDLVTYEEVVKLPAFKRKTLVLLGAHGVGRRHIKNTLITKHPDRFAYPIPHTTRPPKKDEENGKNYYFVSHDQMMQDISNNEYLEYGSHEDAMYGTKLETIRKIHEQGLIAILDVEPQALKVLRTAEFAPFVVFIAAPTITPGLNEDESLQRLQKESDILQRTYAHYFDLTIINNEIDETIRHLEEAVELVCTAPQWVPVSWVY
Method in brief: as §1

[5] = target: T5, ~100 representative kinases (Homo sapiens, UniProt Q13873); details: Protein BMPR2; average of three replicates
T5 construct: Recombinant protein kinase domains with a concentration of 2 μM
T5 sequence (Q13873 27-1038): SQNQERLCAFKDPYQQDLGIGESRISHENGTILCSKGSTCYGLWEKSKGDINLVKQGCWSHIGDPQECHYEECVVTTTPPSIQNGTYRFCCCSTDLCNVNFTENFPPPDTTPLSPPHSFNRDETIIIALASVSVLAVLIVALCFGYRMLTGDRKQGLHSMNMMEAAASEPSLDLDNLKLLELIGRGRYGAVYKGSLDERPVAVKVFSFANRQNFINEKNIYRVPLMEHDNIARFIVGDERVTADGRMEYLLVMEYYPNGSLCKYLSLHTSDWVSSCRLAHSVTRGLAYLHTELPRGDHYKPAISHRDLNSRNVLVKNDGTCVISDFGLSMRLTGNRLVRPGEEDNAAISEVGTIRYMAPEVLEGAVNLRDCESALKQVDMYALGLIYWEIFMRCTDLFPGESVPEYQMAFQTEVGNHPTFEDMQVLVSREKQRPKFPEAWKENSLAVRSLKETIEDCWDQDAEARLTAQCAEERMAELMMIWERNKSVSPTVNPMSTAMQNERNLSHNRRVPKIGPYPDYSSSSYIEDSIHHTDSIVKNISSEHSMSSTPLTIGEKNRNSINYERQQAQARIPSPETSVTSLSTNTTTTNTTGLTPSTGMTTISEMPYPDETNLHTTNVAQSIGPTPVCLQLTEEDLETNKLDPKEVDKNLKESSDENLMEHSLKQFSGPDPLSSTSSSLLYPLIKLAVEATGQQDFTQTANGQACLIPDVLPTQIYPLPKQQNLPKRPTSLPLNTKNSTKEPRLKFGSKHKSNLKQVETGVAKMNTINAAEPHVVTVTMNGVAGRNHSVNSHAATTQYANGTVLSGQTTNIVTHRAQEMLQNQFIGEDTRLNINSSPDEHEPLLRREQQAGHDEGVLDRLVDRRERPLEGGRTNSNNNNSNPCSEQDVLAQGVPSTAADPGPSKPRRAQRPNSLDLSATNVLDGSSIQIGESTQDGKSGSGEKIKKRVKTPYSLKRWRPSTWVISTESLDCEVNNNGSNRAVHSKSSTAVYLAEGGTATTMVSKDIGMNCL
Method in brief: as §1

[6] = target: T6, ~100 representative kinases (Homo sapiens, UniProt Q99640); details: protein PKMYT1; average of three replicates
T6 construct: Recombinant protein kinase domains with a concentration of 2 μM
T6 sequence (Q99640 1-499): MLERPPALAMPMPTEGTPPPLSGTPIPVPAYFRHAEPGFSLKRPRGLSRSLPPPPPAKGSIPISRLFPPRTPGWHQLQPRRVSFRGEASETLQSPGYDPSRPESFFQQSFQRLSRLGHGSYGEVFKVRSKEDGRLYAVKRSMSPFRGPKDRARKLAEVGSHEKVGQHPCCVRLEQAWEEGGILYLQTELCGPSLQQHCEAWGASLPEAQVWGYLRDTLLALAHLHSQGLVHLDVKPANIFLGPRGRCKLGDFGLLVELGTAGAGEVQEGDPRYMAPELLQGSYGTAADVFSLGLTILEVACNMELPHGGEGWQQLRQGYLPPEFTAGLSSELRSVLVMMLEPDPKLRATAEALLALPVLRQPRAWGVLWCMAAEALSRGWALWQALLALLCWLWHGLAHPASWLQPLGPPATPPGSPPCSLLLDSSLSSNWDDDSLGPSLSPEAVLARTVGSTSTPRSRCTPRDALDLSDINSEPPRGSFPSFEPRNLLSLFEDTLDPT
Method in brief: as §1

T2 sequence (Q00536 whole entry, the tested form may be a part): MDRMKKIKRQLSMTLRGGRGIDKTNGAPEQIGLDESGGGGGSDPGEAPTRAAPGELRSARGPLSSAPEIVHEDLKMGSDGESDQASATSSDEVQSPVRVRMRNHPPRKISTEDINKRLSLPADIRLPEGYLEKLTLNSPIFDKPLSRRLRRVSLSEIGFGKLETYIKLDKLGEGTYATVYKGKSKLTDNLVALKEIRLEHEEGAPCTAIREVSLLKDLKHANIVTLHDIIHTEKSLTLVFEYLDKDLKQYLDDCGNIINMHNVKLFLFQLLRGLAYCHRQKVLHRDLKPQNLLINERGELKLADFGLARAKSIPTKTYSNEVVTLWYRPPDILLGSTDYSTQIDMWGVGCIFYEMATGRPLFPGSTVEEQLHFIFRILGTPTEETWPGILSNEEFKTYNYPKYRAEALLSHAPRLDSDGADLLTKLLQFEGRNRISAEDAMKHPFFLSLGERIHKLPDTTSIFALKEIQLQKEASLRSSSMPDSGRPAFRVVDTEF
T1 sequence (P07332 whole entry, the tested form may be a part): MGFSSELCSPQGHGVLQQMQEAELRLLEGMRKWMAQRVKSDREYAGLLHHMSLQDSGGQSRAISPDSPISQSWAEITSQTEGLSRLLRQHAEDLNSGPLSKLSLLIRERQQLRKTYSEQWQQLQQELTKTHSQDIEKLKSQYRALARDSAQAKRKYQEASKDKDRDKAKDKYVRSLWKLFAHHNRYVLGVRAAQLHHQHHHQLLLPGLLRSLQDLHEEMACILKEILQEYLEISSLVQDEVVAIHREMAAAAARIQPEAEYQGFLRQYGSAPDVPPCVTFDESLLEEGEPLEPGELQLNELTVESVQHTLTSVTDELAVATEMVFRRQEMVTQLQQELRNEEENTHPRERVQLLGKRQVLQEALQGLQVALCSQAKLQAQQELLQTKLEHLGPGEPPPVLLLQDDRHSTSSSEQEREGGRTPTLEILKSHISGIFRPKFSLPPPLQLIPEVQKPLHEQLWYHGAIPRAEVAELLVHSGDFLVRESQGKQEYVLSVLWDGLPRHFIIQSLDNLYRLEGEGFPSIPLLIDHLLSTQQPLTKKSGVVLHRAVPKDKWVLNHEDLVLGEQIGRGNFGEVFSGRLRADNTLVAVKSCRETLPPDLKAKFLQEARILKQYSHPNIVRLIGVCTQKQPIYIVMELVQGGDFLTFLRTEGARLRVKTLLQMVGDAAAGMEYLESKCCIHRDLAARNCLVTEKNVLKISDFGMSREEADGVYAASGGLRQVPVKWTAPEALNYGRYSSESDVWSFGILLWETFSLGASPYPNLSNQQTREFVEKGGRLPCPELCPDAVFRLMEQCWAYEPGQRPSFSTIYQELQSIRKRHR
T3 sequence (P45984 whole entry, the tested form may be a part): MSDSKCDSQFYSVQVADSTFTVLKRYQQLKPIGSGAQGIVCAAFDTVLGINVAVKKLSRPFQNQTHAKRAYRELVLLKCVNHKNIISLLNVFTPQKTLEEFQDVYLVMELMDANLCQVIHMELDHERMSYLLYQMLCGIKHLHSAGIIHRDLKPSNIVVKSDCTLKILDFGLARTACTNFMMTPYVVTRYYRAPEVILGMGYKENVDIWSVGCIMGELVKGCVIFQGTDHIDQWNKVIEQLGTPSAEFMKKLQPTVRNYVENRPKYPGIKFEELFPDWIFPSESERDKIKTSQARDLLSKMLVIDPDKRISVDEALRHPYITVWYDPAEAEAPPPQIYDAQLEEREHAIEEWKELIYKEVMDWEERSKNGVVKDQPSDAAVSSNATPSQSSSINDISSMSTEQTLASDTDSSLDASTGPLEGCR

Compound	dTm [1] [K]	dTm [2] [K]	dTm [3] [K]	dTm [4] [K]	dTm [5] [K]	dTm [6] [K]
Cc1ccc(C(=O)Nc2ccc(CN3CCN(C)CC3)c(C(F)(F)F)c2)cc1C#Cc1c[nH]c2ncnc(N3CCOCC3)c12 [Compound 1]	3.82	1.60	5.51	1.18	1.36	0.41
O=C(Nc1ccc(F)cc1)C1(C(=O)Nc2cccc(-c3c[nH]c4ncnc(N5CCOCC5)c34)c2)CC1 [Compound 2]	7.20	5.80	2.87	0.30	0.92	-2.28
O=C(Nc1cccc(-c2c[nH]c3ncnc(N4CCOCC4)c23)c1)c1cccn(-c2ccc(F)cc2)c1=O [Compound 4]	6.45	7.66	5.57	-0.18	0.82	0.10
Cc1cc(NC(=O)C2(C(=O)Nc3ccc(F)cc3)CC2)cc(-c2c[nH]c3ncnc(N4CCOCC4)c23)c1 [Compound 6]	4.17	1.12	2.51	0.76	0.52	-0.19
O=C(Nc1cccc(-c2c[nH]c3ncnc(N4CCOCC4)c23)c1)C1(C(=O)Nc2cccc3c2CCC3)CC1 [Compound 11]	4.12	3.50	4.16	-5.15	0.44	-0.88
O=C(Nc1ccccc1)C1(C(=O)Nc2cccc(-c3c[nH]c4ncnc(N5CCOCC5)c34)c2)CC1 [Compound 12]	6.39	5.02	2.81	0.25	1.02	0.71
O=C(Nc1ccc(Cl)cc1)C1(C(=O)Nc2cccc(-c3c[nH]c4ncnc(N5CCOCC5)c34)c2)CC1 [Compound 13]	8.66	9.13	3.96	0.70	1.26	0.52
Cc1ccc(NC(=O)C2(C(=O)Nc3cccc(-c4c[nH]c5ncnc(N6CCOCC6)c45)c3)CC2)cc1 [Compound 14]	6.21	6.61	2.56	0.19	1.10	0.43
CCc1ccc(NC(=O)C2(C(=O)Nc3cccc(-c4c[nH]c5ncnc(N6CCOCC6)c45)c3)CC2)cc1 [Compound 15]	4.64	9.05	4.14	0.36	0.80	0.54
COc1ccc(NC(=O)C2(C(=O)Nc3cccc(-c4c[nH]c5ncnc(N6CCOCC6)c45)c3)CC2)cc1 [Compound 16]	3.37	5.58	1.53	0.15	0.48	-0.09
O=C(Nc1cccc(-c2c[nH]c3ncnc(N4CCOCC4)c23)c1)C1(C(=O)Nc2ccc(F)c(F)c2)CC1 [Compound 17]	5.87	5.61	2.95	0.19	0.95	0.00857
Cc1ccc(C(=O)Nc2ccc(CN3CCN(C)CC3)c(C(F)(F)F)c2)cc1C#Cc1cnc2[nH]ncc2c1 [GZD-824, reference compound]	–	3.06	4.93	-2.40	–	0.44
Cc1ccc(C(=O)Nc2ccc(CN3CCN(C)CC3)c(C(F)(F)F)c2)cc1C#Cc1cnc2cccnn12 [Ponatinib, reference compound]	–	–	–	–	–	-0.27
CN[C@@H]1C[C@H]2O[C@@](C)([C@@H]1OC)n1c3ccccc3c3c4c(c5c6ccccc6n2c5c31)C(=O)NC4 [Staurosporine]	–	–	–	–	3.02	–
